Here are results for one substance from US20030180396A1, “Method of effecting phosphorylation in eucaryotic cells using thiamine triphosphate” (INSTITUT PASTEUR, priority 1999, published 2003).

By IC50 is commonly meant the concentration needed to halve the response being measured.

Where two headings read alike, the source gives them in different places.

The test system of experiment [1] is TTP-dependent kinase(s) (TTP-kinase, TTP-43K-kinase). Put plainly: TTP-dependent phosphorylation of 43K rapsyn by endogenous kinase(s) in nAChR-rich postsynaptic membranes. The experiment is classed as biochemical, Torpedo marmorata. The conditions noted are these: for Kd: read-out: KD (apparent dissociation constant) of 43K rapsyn phosphorylation. The method, then: (§1) nAChR-rich postsynaptic membranes (nAChR-membranes) were prepared from electric organs excised from freshly killed Torpedo marmorata (T.m.) (Biologie Marine, Arcachon) (3, 16).
(§2) [γ-^32P]-TTP (^32P-TTP) was synthesized (27). nAChR-membranes were phosphorylated with (7-8000 Ci/mol) ^32P-TTP or ^32P-ATP in 50 mM Tris-HCl pH 7.5, 5-15 mM MgCl2, 0.08% CHAPS, inhibitors of proteases at 4°-20° C. for 60-90 minutes. […] Coomassie blue staining was performed when necessary. Where specified, nAChR-membranes were treated with 5-20 mM diethylpyrocarbonate (DEPC.) (28) in 50 mM Na phosphate buffer pH 6.0 and 7.4 (20 min, 16° C.), prior to incubation with ^32P-TTP.
A purified extract containing the kinase responsible for the TTP dependent phosphorylation of histidine residues on rapsyn, is preincubated with increasing concentration of products inhibiting the enzymatic activity of said kinase (FIG. 3A).

Another experiment concerns mouse brain membranes. The following applies: FIG. 8.
Experiment [2] concerns endogenous protein kinase A (PKA). Put plainly: ATP-dependent phosphorylation of 43K rapsyn in nAChR-rich postsynaptic membranes. It is filed as biochemical, Torpedo marmorata. The method, then:
as §1, §2

As to thiamine triphosphate [TTP], in experiment [1], the “effect on TTP-dependent phosphorylation of 43K rapsyn / TTP-kinase activity (in words)” value is “specifically inhibited”. Moreover, the IC50 in experiment [1] (FIG. 3A, preincubation with cold triphosphate, read-out: IC50, inhibition of TTP-dependent phosphorylation of 43K rapsyn) is about 40 µM. In addition, the Kd was 5 to 10 µM in experiment [1] (FIG. 3C, dose dependent and saturable); about 25 µM in experiment [1] (one membrane preparation). The “proteins phosphorylated in mouse brain membranes” value with mouse brain membranes was “phosphorylated very few”. Moreover, in experiment [2], the “effect on 32P-ATP-dependent 43K rapsyn phosphorylation (in words)” value was “specifically inhibited”.
